Results reported in ChEMBL document CHEMBL5543158, “Design of Evodiamine-Glucose Conjugates with Improved In Vivo Antitumor Activity” (J Med Chem, 2024).
The source made the active and inactive calls. The calls are words filed in the database; no cut-off is given here.

Experiments:
[1] = Toxicity in mouse xenografted with human HCT-116 cells assessed as organ damage by measuring change in kidney at 10 mg/kg, ip twice a day administered 21 consecutive days; type: organism-based; conditions: in vivo
[2] = Cytotoxicity against HUVEC after 72 hrs by CCK-8 assay; type: toxicity, cell-based; conditions: human, HUVEC cells
HCT-116 [3] = assay: Induction of apoptosis in human HCT116 cells assessed as accumulation of cells at G2 phase at 0.05 uM measured after 48 hrs by Annexin V-PI Flow cytometry assay (reference value: 17.63%); type: functional
HCT-116 [4] = assay: Induction of apoptosis in 100 pmol GLUT1 siRNA treated human HCT-116 cells assessed as late apoptotic cells at 50 nM incubated for 48 hrs (reference value: 13.36%); type: functional
[5] = Toxicity in mouse xenografted with human HCT-116 cells assessed as organ damage by measuring change in heart at 10 mg/kg, ip twice a day administered 21 consecutive days; type: organism-based; conditions: in vivo
HCT-116 [6] = assay: Antiproliferative activity against human HCT116 cells measured after 72 hrs by CCK-8 cells; type: functional, cell-based; conditions: HCT-116, 72 h
[7] = Cmax in mouse at 10 mg/kg, ip measured upto 24 hrs; type: ADME, organism-based; conditions: in vivo
HCT-116 [8] = assay: Induction of apoptosis in human HCT116 cells assessed as accumulation of cells at G2 phase at 0.02 uM measured after 48 hrs by Annexin V-PI Flow cytometry assay (reference value: 17.63%); type: functional
HCT-116 [9] = assay: Induction of apoptosis in 100 pmol GLUT1 siRNA treated human HCT-116 cells assessed as late apoptotic cells at 50 nM incubated for 48 hrs (reference value: 17.13%); type: functional
HCT-116 [10] = assay: Induction of apoptosis in human HCT116 cells assessed as accumulation of cells at S phase at 0.2 uM measured after 48 hrs by Annexin V-PI Flow cytometry assay (reference value: 31.25%); type: functional
HCT-116 [11] = assay: Induction of apoptosis in human HCT116 cells assessed as accumulation of cells at S phase at 0.05 uM measured after 48 hrs by Annexin V-PI Flow cytometry assay (reference value: 31.25%); type: functional
[12] = Stability of the compound in mouse serum assessed as compound remaining measured upto 120 mins; type: ADME, cell-free; conditions: read-out: Stability
HCT-116 [13] = assay: Induction of apoptosis in human HCT116 cells assessed as accumulation of cells at G2 phase at 0.1 uM measured after 48 hrs by Annexin V-PI Flow cytometry assay (reference value: 17.63%); type: functional
HCT-116 [14] = assay: Induction of apoptosis in human HCT116 cells assessed as accumulation of cells at G1 phase at 0.2 uM measured after 48 hrs by Annexin V-PI Flow cytometry assay (reference value: 51.12%); type: functional
HCT-116 [15] = assay: In vivo antitumor effect in human HCT-116 cells xenografted mouse model assessed as tumor growth inhibition at 20 mg/kg, ip twice a day administered 21 consecutive days; type: functional; conditions: read-out: TGI
HCT-116 [16] = assay: Induction of apoptosis in human HCT116 cells assessed as accumulation of cells at S phase at 0.1 uM measured after 48 hrs by Annexin V-PI Flow cytometry assay (reference value: 31.25%); type: functional
[17] = Toxicity in mouse xenografted with human HCT-116 cells assessed as organ damage by measuring change in lungs at 10 mg/kg, ip twice a day administered 21 consecutive days; type: organism-based; conditions: in vivo
[18] = Tmax in mouse at 20 mg/kg, ip measured upto 24 hrs; type: ADME, organism-based; conditions: in vivo
Homo sapiens = species: Homo sapiens; assay: Inhibition of DNA topoisomerase 2 (unknown origin) mediated supercoiled DNA relaxation activity at 50 uM by agarose gel electrophoresis analysis
HCT-116 [19] = assay: Reduction in GSH level in human HCT-116 cells assessed as reduced GSH content incubated for 12 hrs; type: functional, cell-based; conditions: dose 0.1-2 µM
[20] = Plasma protein binding mouse plasma at 2 uM; type: ADME, cell-free; conditions: read-out: PPB (converted)
[21] = biological target: T1, DNA topoisomerase 1 (Homo sapiens) (UniProt P11387); assay: Inhibition of DNA topoisomerase I (unknown origin) mediated supercoiled DNA relaxation activity at 100 uM by agarose gel electrophoresis analysis
T1 sequence (whole entry): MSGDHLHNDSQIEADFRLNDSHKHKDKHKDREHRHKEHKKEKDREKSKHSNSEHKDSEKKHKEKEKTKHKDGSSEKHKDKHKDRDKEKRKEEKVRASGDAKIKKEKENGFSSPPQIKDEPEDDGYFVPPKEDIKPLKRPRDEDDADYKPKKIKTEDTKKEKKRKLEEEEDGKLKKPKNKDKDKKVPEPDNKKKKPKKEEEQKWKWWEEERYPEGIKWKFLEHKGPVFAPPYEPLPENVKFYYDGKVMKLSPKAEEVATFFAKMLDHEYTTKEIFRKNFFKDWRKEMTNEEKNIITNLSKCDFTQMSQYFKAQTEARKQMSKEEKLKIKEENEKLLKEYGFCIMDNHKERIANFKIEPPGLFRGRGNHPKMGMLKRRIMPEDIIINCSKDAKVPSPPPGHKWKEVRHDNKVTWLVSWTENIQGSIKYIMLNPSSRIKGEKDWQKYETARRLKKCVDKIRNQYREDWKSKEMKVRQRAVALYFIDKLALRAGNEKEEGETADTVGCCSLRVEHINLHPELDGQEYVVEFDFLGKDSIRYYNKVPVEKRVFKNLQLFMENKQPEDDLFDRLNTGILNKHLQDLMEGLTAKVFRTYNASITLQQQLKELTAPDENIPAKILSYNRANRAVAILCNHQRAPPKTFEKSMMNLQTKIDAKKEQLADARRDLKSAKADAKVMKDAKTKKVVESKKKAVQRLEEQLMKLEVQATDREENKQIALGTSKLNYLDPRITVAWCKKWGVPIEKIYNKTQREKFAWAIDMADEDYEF

HCT-116 [22] = assay: Induction of apoptosis in human HCT116 cells assessed as accumulation of cells at G1 phase at 0.05 uM measured after 48 hrs by Annexin V-PI Flow cytometry assay (reference value: 51.12%); type: functional
HCT-116 [23] = assay: Antimigratory activity against human HCT116 cells assessed as wound healing rate at 0.05 to 0.002 microM incubated for 24 hrs by wound healing assay (reference value: 62%); type: functional; conditions: dose 0.05-0.002 µM, at 0.002 to 0.05 µM
HCT-116 [24] = assay: Antiproliferative activity against human HCT116 cells in presence of 10 uM phloretin measured after 72 hrs by CCK-8 assay; type: functional, cell-based; conditions: HCT-116, 72 h
[25] = MRT (0 to t) in mouse at 20 mg/kg, ip measured upto 24 hrs; type: ADME, organism-based; conditions: in vivo
HCT-116 [26] = assay: Induction of apoptosis in human HCT116 cells assessed as accumulation of cells at S phase at 0.02 uM measured after 48 hrs by Annexin V-PI Flow cytometry assay (reference value: 31.25%); type: functional

IC50 (HCT-116 [6]): 64 nM | Cmax [7]: 4630 ng/mL | remaining at 2 h [12]: 100% | Tmax [18]: 30 min | inhibition (Homo sapiens): Active | fraction unbound at 2 µM [20]: 0.101 | inhibition [21]: Active | IC50 (HCT-116 [24]): 430 nM | MRT last at 24 h [25]: 59.5 min
SMILES: CN1c2ccc(F)cc2C(=O)N2CCc3c([nH]c4ccc(O[C@@H]5O[C@H](CO)[C@@H](O)[C@H](O)[C@H]5O)cc34)[C@H]21
Activity [1]: Non-Toxic | IC50 at 72 h [2]: 221 nM | Activity (HCT-116 [3]): 57.53% | Activity (HCT-116 [4]): 22.61% | Activity [5]: Non-Toxic | Activity (HCT-116 [8]): 30.19% | Activity (HCT-116 [9]): 21.75% | Activity (HCT-116 [10]): 5.6% | Activity (HCT-116 [11]): 32% | Activity (HCT-116 [13]): 88.98% | Activity (HCT-116 [14]): 1.56% | inhibition in vivo at 20 mg/kg (HCT-116 [15]): 82% | Activity (HCT-116 [16]): 9.44% | Activity [17]: Non-Toxic | Activity (HCT-116 [19]): Dose-Dependent Effect | Activity (HCT-116 [22]): 10.48% | Activity (HCT-116 [23]): 1.1% | Activity (HCT-116 [26]): 26.54%
